Test: xn = mol fraction of the nth substance listed

CC[NH+](C)CC.O=S(=O)([O-])C(F)(F)F + O
101 kPa
Settings | viscosity [mPa·s]
293.15 K, x2 = 0.759 | 7.65
313.15 K, x2 = 0.037 | 25.8
333.15 K, x2 = 0.434 | 7.33
333.15 K, x2 = 0.759 | 2.81
333.15 K, x2 = 0.844 | 1.94
353.15 K, x2 = 0.434 | 4.89
353.15 K, x2 = 0.759 | 2.01

CCC[N+]1(C)CCCC1.O=S(=O)([N-]S(=O)(=O)C(F)(F)F)C(F)(F)F + O=C1CCCO1
101 kPa, frequency 0.0005 MHz
Settings | electrical conductivity [S/m]
278.15 K, x1 = 0.3874 | 0.573
308.15 K, x1 = 0.1741 | 1.63
328.15 K, x1 = 0.06566 | 1.63
348.15 K, x1 = 0.1741 | 2.59
348.15 K, x1 = 0.3874 | 2.27
358.15 K, x1 = 0.06566 | 2.1

101 kPa
Settings | viscosity [mPa·s]
278.15 K, x1 = 1 | 163.6
288.15 K, x1 = 0.1741 | 5.49
328.15 K, x1 = 0.1741 | 2.63
338.15 K, x1 = 0.06566 | 1.491
338.15 K, x1 = 0.1741 | 2.274
348.15 K, x1 = 0.1741 | 1.993
358.15 K, x1 = 0.1741 | 1.768
358.15 K, x1 = 1 | 10.34

CCCC[n+]1ccn(C)c1.F[B-](F)(F)F + CC(=O)N(C)C
Settings | electrical conductivity [S/m] | viscosity [mPa·s]
288.15 K, 100 kPa, x1 = 5.846e-05 | 0.003905 | –
288.15 K, 100 kPa, x1 = 0.0006944 | 0.04135 | –
293.15 K, 101 kPa, x1 = 0.7419 | – | 51.8
293.15 K, 101 kPa, x1 = 0.8488 | – | 74
293.15 K, 101 kPa, x1 = 0.9175 | – | 96
293.15 K, 101 kPa, x1 = 1 | – | 125
298.15 K, 100 kPa, x1 = 0.0002592 | 0.01885 | –
298.15 K, 101 kPa, x1 = 0.7419 | – | 44.6
298.15 K, 101 kPa, x1 = 0.8488 | – | 63.1
298.15 K, 101 kPa, x1 = 0.9175 | – | 81
298.15 K, 101 kPa, x1 = 1 | – | 105
303.15 K, 101 kPa, x1 = 0.7419 | – | 36.7
303.15 K, 101 kPa, x1 = 0.8488 | – | 52.7
303.15 K, 101 kPa, x1 = 0.9175 | – | 67
303.15 K, 101 kPa, x1 = 1 | – | 88
308.15 K, 100 kPa, x1 = 5.846e-05 | 0.005095 | –
308.15 K, 100 kPa, x1 = 0.0008703 | 0.06575 | –
308.15 K, 100 kPa, x1 = 0.001047 | 0.07765 | –
308.15 K, 101 kPa, x1 = 0.7419 | – | 29.6
308.15 K, 101 kPa, x1 = 0.8488 | – | 43.4
308.15 K, 101 kPa, x1 = 0.9175 | – | 54.9
308.15 K, 101 kPa, x1 = 1 | – | 72
313.15 K, 101 kPa, x1 = 0.7419 | – | 22.6
313.15 K, 101 kPa, x1 = 0.8488 | – | 33.5
313.15 K, 101 kPa, x1 = 0.9175 | – | 42.9
313.15 K, 101 kPa, x1 = 1 | – | 57.7
313.15 K, 101 kPa, x2 = 0.5002 | – | 9.57
313.15 K, 101 kPa, x2 = 0.8999 | – | 1.434
318.15 K, 101 kPa, x1 = 0.7419 | – | 16.2
318.15 K, 101 kPa, x1 = 0.8488 | – | 24.3
318.15 K, 101 kPa, x1 = 0.9175 | – | 31.8
318.15 K, 101 kPa, x1 = 1 | – | 44
323.15 K, 101 kPa, x1 = 0.7419 | – | 9.8
323.15 K, 101 kPa, x1 = 0.8488 | – | 16.2
323.15 K, 101 kPa, x1 = 0.9175 | – | 22.3
323.15 K, 101 kPa, x1 = 1 | – | 31.6
323.15 K, 101 kPa, x2 = 0.5998 | – | 5.02
323.15 K, 101 kPa, x2 = 0.6996 | – | 3.3
323.15 K, 101 kPa, x2 = 0.8999 | – | 1.253
333.15 K, 101 kPa, x2 = 0.8002 | – | 1.77

CCCC[n+]1ccn(C)c1.O=C([O-])C(F)(F)F + CC(=O)[O-].CCCC[n+]1ccn(C)c1
viscosity [mPa·s], 101 kPa
Settings | 293.15 K | 298.15 K | 303.15 K | 313.15 K | 323.15 K | 333.15 K | 343.15 K | 353.15 K
x2 = 0 | – | – | 58 | 37.8 | 26.1 | 18.89 | 14.47 | 11.25
x2 = 0.2508 | 137.7 | 103 | 78.8 | 49.7 | 33 | 23.2 | 17.33 | 13.18
x2 = 0.4999 | 210 | 152.5 | 113.3 | 66.8 | 42.9 | 29.1 | 20.74 | 15.68
x2 = 0.7487 | 343 | 238 | 171.1 | 94.9 | 57.4 | 37.6 | 25.9 | 18.86

O + CCCCCCCCCCCCCC[n+]1ccccc1.O=C([O-])C(O)c1ccccc1 + CC(C)[C@H](N)C(=O)O
101 kPa, x2 = 0, x3 = 0
Settings | electrical conductivity [S/m]
293.15 K | 0.00012
298.15 K | 0.00015
303.15 K | 0.00016
308.15 K | 0.00017
313.15 K | 0.00019

O + CCCCCCCC[n+]1ccc(C)cc1.[Br-]
100 kPa, frequency 0.003 MHz, x2 = 0
Settings | electrical conductivity [S/m]
288.15 K | 0.0001
308.15 K | 0.00022

CCCC[n+]1ccn(C)c1.F[B-](F)(F)F + N[C@@H](Cc1c[nH]cn1)C(=O)O + O
viscosity [mPa·s], 100 kPa
Settings | 293.15 K | 298.15 K | 303.15 K | 308.15 K | 313.15 K | 318.15 K
x2 = 0, x1 = 0.0003603 | 1.03 | 0.917 | 0.835 | 0.751 | 0.693 | 0.638
x2 = 0, x1 = 0.0007203 | 1.062 | 0.951 | 0.868 | 0.789 | 0.736 | 0.681
x2 = 0, x1 = 0.00108 | 1.093 | 0.983 | 0.904 | 0.83 | 0.779 | 0.725

CCCCn1cc[n+](CCOCCOCC[n+]2ccn(CCCC)c2)c1.N#C[N-]C#N.N#C[N-]C#N + CC[n+]1ccn(C)c1.N#C[N-]C#N + O=S(=O)([N-]S(=O)(=O)C(F)(F)F)C(F)(F)F.[Li+]
100 kPa, x1 = 0.2388, x2 = 0.6693
Settings | electrical conductivity [S/m]
298 K | 0.505
303 K | 0.581
313 K | 0.847
323 K | 1.23
333 K | 1.53
343 K | 1.85

O + CCCCCC[n+]1ccc(C)cc1.[Br-]
100 kPa, frequency 0.003 MHz, x2 = 0
Settings | electrical conductivity [S/m]
288.15 K | 0.0001
308.15 K | 0.00022

CC(=O)[O-].C[NH+](C)C + O
298.15 K, 101 kPa
Settings | viscosity [mPa·s]
x1 = 0.5942 | 2.59
x1 = 0.8068 | 2.64
x1 = 0.8639 | 2.66

O + CCOS(=O)(=O)[O-].CC[n+]1ccn(C)c1
Settings | electrical conductivity [S/m]
298.15 K, 101.3 kPa, x1 = 1 | 0.00264

O + CCCC[n+]1ccc(C)cc1.[Br-]
100 kPa, frequency 0.003 MHz, x2 = 0
Settings | electrical conductivity [S/m]
288.15 K | 0.0001
308.15 K | 0.00022

CCCC[n+]1ccn(C)c1.F[B-](F)(F)F + CCCC[n+]1ccn(C)c1.COS(=O)(=O)[O-]
101 kPa, x1 = 1
Settings | viscosity [mPa·s]
302.15 K | 88.7
305.15 K | 76.8

O + CCCCCCCCCCCCCCCC[n+]1ccccc1.O=C([O-])C(O)c1ccccc1 + CC(C)C[C@H](N)C(=O)O
101 kPa, x2 = 0, x3 = 0
Settings | electrical conductivity [S/m]
293.15 K | 0.00012
298.15 K | 0.00015
303.15 K | 0.00016
308.15 K | 0.00017
313.15 K | 0.00019

O + CCCCCCCCCCCCCCCC[n+]1ccccc1.O=C([O-])C(O)c1ccccc1
101 kPa, x2 = 0
Settings | electrical conductivity [S/m]
293.15 K | 0.00012
298.15 K | 0.00015
303.15 K | 0.00016
308.15 K | 0.00017
313.15 K | 0.00019

CCCC[n+]1ccn(C)c1.F[B-](F)(F)F + CC(=O)c1ccccc1
100 kPa, x2 = 0
Settings | viscosity [mPa·s]
293.15 K | 133
303.15 K | 77
313.15 K | 49.1
323.15 K | 33
333.15 K | 23.3

CCC[N+]1(C)CCCC1.O=S(=O)([N-]S(=O)(=O)C(F)(F)F)C(F)(F)F + CC#N
electrical conductivity [S/m], 101 kPa, frequency 0.0005 MHz
Settings | 278.15 K | 288.15 K | 298.15 K | 308.15 K | 318.15 K | 328.15 K
x1 = 0.03242 | 2.26 | 2.44 | 2.63 | 2.78 | 2.91 | 3.13
x1 = 0.09134 | 2.76 | 3.03 | 3.31 | 3.54 | 3.77 | 3.92
x1 = 0.2317 | 2.01 | 2.35 | 2.69 | 2.97 | 3.28 | 3.53

viscosity [mPa·s], 101 kPa
Settings | 278.15 K | 288.15 K | 298.15 K | 308.15 K | 318.15 K | 328.15 K | 338.15 K | 348.15 K | 358.15 K
x1 = 0.03242 | 0.649 | 0.581 | 0.516 | 0.46 | 0.405 | – | – | – | –
x1 = 0.09134 | 1.145 | 0.993 | 0.877 | 0.797 | 0.706 | 0.621 | – | – | –
x1 = 0.2317 | 3.57 | 2.91 | 2.44 | 2.079 | 1.798 | 1.592 | – | – | –
x1 = 1 | 163.6 | 96.2 | 60.6 | 40.8 | 28.9 | 21.3 | 16.29 | 12.82 | 10.34

NC(N)=[NH2+].O=S(=O)([O-])C(F)(F)F + CN(CCO)CCO + O
Settings | viscosity [mPa·s]
323.2 K, 101 kPa, x2 = 0.1179, x3 = 0.8792 | 3.5

CCCC[n+]1ccn(C)c1.F[B-](F)(F)F + CCC(C)=O
100 kPa, x1 = 1
Settings | viscosity [mPa·s]
303.15 K | 85.4
313.15 K | 53.84
323.15 K | 36.27
333.15 K | 25.46

O + CC[n+]1ccn(C)c1.CS(=O)(=O)[O-]
Settings | electrical conductivity [S/m]
298.15 K, 100 kPa, x1 = 1 | 0.00023

100 kPa, frequency 0.003 MHz, x2 = 0
Settings | electrical conductivity [S/m]
323.15 K | 0.0005
333.15 K | 0.0015

O + CCCCCCCCCCCCCCCC[n+]1ccccc1.O=C([O-])C(O)c1ccccc1 + NCC(=O)NCC(=O)O
101 kPa, x2 = 0, x3 = 0
Settings | electrical conductivity [S/m]
293.15 K | 0.00012
298.15 K | 0.00015
303.15 K | 0.00016
308.15 K | 0.00017
313.15 K | 0.00019

O + CCCCCCCCCCCCCCCC[n+]1ccccc1.O=C([O-])c1ccccc1O
101 kPa, x2 = 0
Settings | electrical conductivity [S/m]
293.15 K | 0.000135
298.15 K | 0.000158
303.15 K | 0.000178
308.15 K | 0.000197
313.15 K | 0.000246

From the CheMixHub ionic liquid set
